Earlier results as cited in PMC11247654 (ACS Medicinal Chemistry Letters, 2024).

Legend:
[1] = neutropenic mouse thigh infection assay

Leu10-isobactin A
In vitro activity against MRSA (MRSA): 0.5 µg/mL
In vivo activity (active dose) [1]: 3 to 10 mg/kg
